Assay results from ChEMBL document CHEMBL1201862, “PubChem BioAssay data set” (2004).
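1) Cells in 96-well plates. 2) Compound, 48 h, 5 concentrations. 3) Linear interpolation between surrounding doses. 4) Unreached endpoint = highest concentration. Abbreviation: GI50, concentration required for 50% inhibition of growth.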 Calls of active or inactive are those of the source. Rule as the data show it: active = GI50 up to about 1.1 µM and inactive = higher.

Tests used:
Assay in all cases: NCI anticancer screen, dose series, 48 h
[1] = test system: LXFL 529
[2] = test system: NCI-H23
[3] = test system: XF498
[4] = test system: HOP-92
[5] = test system: DMS-273
[6] = test system: NCI-H226
[7] = test system: COLO 205
[8] = test system: OVCAR-4
[9] = test system: OVCAR-3
[10] = test system: HCT-116
[11] = test system: HOP-18
[12] = test system: NCI-H460
[13] = test system: MOLT-4
[14] = test system: SF-268
[15] = test system: OVCAR-5
[16] = test system: MDA-MB-435
[17] = test system: DMS-114
[18] = test system: LOX IMVI
[19] = test system: SK-MEL-5
[20] = test system: SNB-19
[21] = test system: SK-MEL-2
[22] = test system: HL-60
[23] = test system: SN12C
[24] = test system: Hs-578T
[25] = test system: KM-20L2
[26] = test system: Malme-3M
[27] = test system: SF-295
[28] = test system: 786-0
[29] = test system: M14
[30] = test system: MDA-MB-231
[31] = test system: CAKI-1
[32] = test system: KM12
[33] = test system: TK-10
[34] = test system: UACC-257
[35] = test system: U-251
[36] = test system: NCI/ADR-RES
[37] = test system: A498
[38] = test system: RPMI-8226
[39] = test system: SW-620
[40] = test system: UO-31
[41] = test system: OVCAR-8
[42] = test system: HT-29
[43] = test system: DLD-1
[44] = test system: MDA-N
[45] = test system: SF-539
[46] = test system: CCRF-CEM
[47] = test system: K562
[48] = test system: NCI-H522
[49] = test system: SK-MEL-28
[50] = test system: M19-MEL
[51] = test system: SK-OV-3
[52] = test system: ACHN
[53] = test system: PC-3
[54] = test system: A549
[55] = test system: RXF 393
[56] = test system: T47D
[57] = test system: HOP-62
[58] = test system: EKVX
[59] = test system: SR
[60] = test system: SNB-75
[61] = test system: HCC 2998
[62] = test system: UACC-62
[63] = test system: BT-549
[64] = test system: IGROV-1
[65] = test system: DU-145
[66] = test system: SNB-78
[67] = test system: MCF7
[68] = test system: HCT-15

Measured: GI50

CCC1CN2CCc3cc(OC)c(OC)cc3C2CC1CC1c2cc(OC)c(OC)cc2CCN1C(=O)C(Cc1c[nH]c2ccccc12)NC(=O)OC(C)(C)C (stereo unspecified)
2.58 µM: [68]
inactive: [1] 3.94 µM | [2] 7.67 µM | [3] 1.78 µM | [4] 2.62 µM | [5] 6.53 µM | [6] 13.4 µM | [7] 1.57 µM | [8] 1.7 µM | [9] 3.3 µM | [10] 1.6 µM | [11] 4.13 µM | [12] 2.39 µM | [13] 2.47 µM | [14] 5.4 µM | [15] 8.81 µM | [16] 1.78 µM | [17] 1.38 µM | [18] 1.88 µM | [19] 1.67 µM | [20] 7.59 µM | [21] 2.67 µM | [22] 2.03 µM | [23] 3.26 µM | [24] 2.08 µM | [25] 1.87 µM | [26] 1.74 µM | [27] 3.97 µM | [28] 2.61 µM | [29] 1.79 µM | [30] 2.16 µM | [31] 6.84 µM | [32] 2.83 µM | [33] 7.83 µM | [34] 2.71 µM | [35] 2.57 µM | [36] 1.63 µM | [37] 6.65 µM | [38] 2.52 µM | [39] 2.82 µM | [40] 2.77 µM | [41] 3.27 µM | [42] 2.03 µM | [43] 8.39 µM | [44] 1.97 µM | [45] 2.34 µM | [46] 3.1 µM | [47] 2.7 µM | [48] 2.28 µM | [49] 1.98 µM | [50] 1.69 µM | [51] 4.8 µM | [52] 3.84 µM | [53] 3.12 µM | [54] 3.61 µM | [55] 2.67 µM | [56] 1.85 µM | [57] 4.91 µM | [58] 5.7 µM | [59] 1.73 µM | [60] 2.59 µM | [61] 2.63 µM | [62] 5.64 µM | [63] 3.36 µM | [64] 1.73 µM | [65] 2.42 µM | [66] 15.5 µM | [67] 2.31 µM

C=CCn1c2c(sc1=S)C(S)NC=N2 (stereo unspecified)
> 100 µM: [68]
inactive: [1] > 100 µM | [2] 90.6 µM | [3] > 100 µM | [4] 16.8 µM | [5] > 100 µM | [6] > 100 µM | [7] > 100 µM | [8] > 100 µM | [9] 94.2 µM | [10] 77.3 µM | [11] 18.9 µM | [12] > 100 µM | [13] > 100 µM | [14] 4.65 µM | [15] > 100 µM | [17] 43.7 µM | [18] > 100 µM | [19] 54.5 µM | [20] 99.8 µM | [21] > 100 µM | [22] > 100 µM | [23] > 100 µM | [25] > 100 µM | [26] 10.4 µM | [27] 61.2 µM | [28] > 100 µM | [29] > 100 µM | [31] > 100 µM | [32] > 100 µM | [33] > 100 µM | [34] 71 µM | [35] 32.6 µM | [37] 30.8 µM | [38] 38.5 µM | [39] > 100 µM | [40] 34.1 µM | [41] > 100 µM | [42] > 100 µM | [43] > 100 µM | [45] 85.1 µM | [46] 95.9 µM | [47] 73.5 µM | [48] 34.8 µM | [49] > 100 µM | [50] > 100 µM | [51] > 100 µM | [52] 71.3 µM | [54] 69 µM | [55] > 100 µM | [57] 39 µM | [58] 49.5 µM | [59] 91.8 µM | [60] > 100 µM | [61] 26.5 µM | [62] 27.5 µM | [64] 88.5 µM | [66] 78.2 µM
